{"source": "the supplement of paper PMC10307832", "test_in_all_cases": "relative viability (nuclei count vs DMSO), 5 days (fraction); higher = more cells survive", "key": {"Carfilzomib + Lapatinib": {"compound": "CC(C)C[C@H](NC(=O)[C@H](CCc1ccccc1)NC(=O)CN1CCOCC1)C(=O)N[C@@H](Cc1ccccc1)C(=O)N[C@@H](CC(C)C)C(=O)[C@@]1(C)CO1 [Carfilzomib] + CS(=O)(=O)CCNCc1ccc(-c2ccc3ncnc(Nc4ccc(OCc5cccc(F)c5)c(Cl)c4)c3c2)o1 [Lapatinib] (partner 2 µM)", "summary_of_the_method": "(§1)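 Lung cancer cell lines in 1536-well plates were dosed by pin tool the day after seeding, either with one drug alone or with a fixed anchor-drug dose plus five library-drug doses (not always all listed) in √10 steps. After 5 days, cells were fixed and their nuclei stained in one step (final 0.05% Triton X-100, 1% formaldehyde, 1 ug/ml Hoechst), then counted on 4× images. Relative viability is the nuclei count in treated wells divided by that in vehicle wells. Values are medians of duplicate plates.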"}, "Carfilzomib + Tozasertib": {"compound": "CC(C)C[C@H](NC(=O)[C@H](CCc1ccccc1)NC(=O)CN1CCOCC1)C(=O)N[C@@H](Cc1ccccc1)C(=O)N[C@@H](CC(C)C)C(=O)[C@@]1(C)CO1 [Carfilzomib] + Cc1cc(Nc2cc(N3CCN(C)CC3)nc(Sc3ccc(NC(=O)C4CC4)cc3)n2)n[nH]1 [Tozasertib] (partner 0.1 µM)", "summary_of_the_method": "as §1"}, "Crizotinib + Alpelisib": {"compound": "C[C@@H](Oc1cc(-c2cnn(C3CCNCC3)c2)cnc1N)c1c(Cl)ccc(F)c1Cl [Crizotinib] + Cc1nc(NC(=O)N2CCC[C@H]2C(N)=O)sc1-c1ccnc(C(C)(C)C(F)(F)F)c1 [Alpelisib] (partner 2 µM)", "summary_of_the_method": "as §1"}, "Crizotinib + Pemetrexed": {"compound": "C[C@@H](Oc1cc(-c2cnn(C3CCNCC3)c2)cnc1N)c1c(Cl)ccc(F)c1Cl [Crizotinib] + Nc1nc2[nH]cc(CCc3ccc(C(=O)N[C@@H](CCC(=O)O)C(=O)O)cc3)c2c(=O)[nH]1 [Pemetrexed] (partner 0.2 µM)", "summary_of_the_method": "as §1"}, "Olaparib + OSI-027": {"compound": "O=C(c1cc(Cc2n[nH]c(=O)c3ccccc23)ccc1F)N1CCN(C(=O)C2CC2)CC1 [Olaparib] + COc1cccc2cc(-c3nc([C@H]4CC[C@H](C(=O)O)CC4)n4ncnc(N)c34)[nH]c12 [OSI-027] (partner 0.5 µM)", "summary_of_the_method": "as §1"}}, "data": [{"cell line": "NCI-H1793", "values": [{"measurement": "relative viability", "setting": "Carfilzomib + Lapatinib; first compound 0.003162 µM", "value": 0.772}, {"measurement": "relative viability", "setting": "Carfilzomib + Lapatinib; first compound 0.01 µM", "value": 0.476}, {"measurement": "relative viability", "setting": "Carfilzomib + Lapatinib; first compound 0.03162 µM", "value": 0.424}, {"measurement": "relative viability", "setting": "Carfilzomib + Lapatinib; first compound 0.1 µM", "value": 0.114}, {"measurement": "relative viability", "setting": "Carfilzomib + Tozasertib; first compound 0.003162 µM", "value": 0.469}, {"measurement": "relative viability", "setting": "Carfilzomib + Tozasertib; first compound 0.01 µM", "value": 0.327}, {"measurement": "relative viability", "setting": "Carfilzomib + Tozasertib; first compound 0.03162 µM", "value": 0.292}, {"measurement": "relative viability", "setting": "Carfilzomib + Tozasertib; first compound 0.1 µM", "value": 0.123}, {"measurement": "relative viability", "setting": "Crizotinib + Alpelisib; first compound 0.01 µM", "value": 0.703}, {"measurement": "relative viability", "setting": "Crizotinib + Alpelisib; first compound 0.03162 µM", "value": 0.789}, {"measurement": "relative viability", "setting": "Crizotinib + Alpelisib; first compound 0.1 µM", "value": 0.729}, {"measurement": "relative viability", "setting": "Crizotinib + Alpelisib; first compound 1 µM", "value": 0.872}, {"measurement": "relative viability", "setting": "Crizotinib + Pemetrexed; first compound 0.03162 µM", "value": 1.04}, {"measurement": "relative viability", "setting": "Crizotinib + Pemetrexed; first compound 0.1 µM", "value": 0.902}, {"measurement": "relative viability", "setting": "Crizotinib + Pemetrexed; first compound 1 µM", "value": 1.2}, {"measurement": "relative viability", "setting": "Olaparib + OSI-027; first compound 0.08 µM", "value": 0.279}, {"measurement": "relative viability", "setting": "Olaparib + OSI-027; first compound 0.253 µM", "value": 0.295}, {"measurement": "relative viability", "setting": "Olaparib + OSI-027; first compound 2.53 µM", "value": 0.29}, {"measurement": "relative viability", "setting": "Olaparib + OSI-027; first compound 8 µM", "value": 0.243}]}]}
